In ChEMBL document CHEMBL1201862, “PubChem BioAssay data set” (2004):
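Test compounds were applied to cells in 96-well plates for 48 hours at 5 doses. GI50 = concentration required for 50% inhibition of growth.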 The source made the active and inactive calls. No stated cut-off is given here; in the data, active = GI50 up to about 1.1 µM and inactive = higher. Positions of bridges follow the written chain, without caps; N, C: chain ends. Non-standard residues stand in square brackets, D forms with d. Residues, ends and D or L forms follow the SMILES beside them. *: point of attachment. Cbz = O=C(OCc1ccccc1)*; Aib = CC(C)(N)C(=O)O; OBn = c1ccc(CO*)cc1; βAla = NCCC(=O)O

Legend:
Test in all cases: NCI anticancer screen, dose series, 48 h
M14 = system: M14
MDA-MB-435 = system: MDA-MB-435
RXF 393 = system: RXF 393
NCI/ADR-RES = system: NCI/ADR-RES
SNB-19 = system: SNB-19
SNB-75 = system: SNB-75
HL-60 = system: HL-60
MCF7 = system: MCF7
A549 = system: A549
ACHN = system: ACHN
CCRF-CEM = system: CCRF-CEM
PC-3 = system: PC-3
UACC-62 = system: UACC-62
MDA-MB-231 = system: MDA-MB-231
HCT-15 = system: HCT-15
T47D = system: T47D
NCI-H460 = system: NCI-H460
SK-OV-3 = system: SK-OV-3
KM12 = system: KM12

| SMILES | GI50 (M14) | GI50 (MDA-MB-435) | GI50 (RXF 393) | GI50 (NCI/ADR-RES) | GI50 (SNB-19) | GI50 (SNB-75) | GI50 (HL-60) | GI50 (MCF7) | GI50 (A549) | GI50 (ACHN) | GI50 (CCRF-CEM) | GI50 (PC-3) | GI50 (UACC-62) | GI50 (MDA-MB-231) | GI50 (HCT-15) [µM] | GI50 (T47D) | GI50 (NCI-H460) | GI50 (SK-OV-3) | GI50 (KM12) |
| --- | --- | --- | --- | --- | --- | --- | --- | --- | --- | --- | --- | --- | --- | --- | --- | --- | --- | --- | --- |
| CCOP(=O)(Nc1ccc2oc(=O)c3ccccc3c2c1)OCC | > 100 µM (inactive) | > 100 µM (inactive) | 91.2 µM (inactive) | 71.1 µM (inactive) | 84.1 µM (inactive) | 66.2 µM (inactive) | 19.4 µM (inactive) | 14.2 µM (inactive) | 41.9 µM (inactive) | 33.2 µM (inactive) | 51.3 µM (inactive) | 27.8 µM (inactive) | 48.1 µM (inactive) | 38.4 µM (inactive) | 79.8 | 35.3 µM (inactive) | > 100 µM (inactive) |  |  |
| O=C1NC(=O)C2(CCCCCC2)N1 | > 100 µM (inactive) | > 100 µM (inactive) | > 100 µM (inactive) | > 100 µM (inactive) | > 100 µM (inactive) | > 100 µM (inactive) |  | > 100 µM (inactive) | > 100 µM (inactive) | > 100 µM (inactive) | > 100 µM (inactive) | > 100 µM (inactive) | > 100 µM (inactive) | > 100 µM (inactive) | > 100 | > 100 µM (inactive) | > 100 µM (inactive) | > 100 µM (inactive) | > 100 µM (inactive) |
| COC(=O)c1ccc(NCc2c(O)ccc(O)c2Br)cc1Cl | 17.5 µM (inactive) | 13.6 µM (inactive) |  | 12.2 µM (inactive) | 25.9 µM (inactive) | 23.1 µM (inactive) | 1.69 µM (inactive) | 16 µM (inactive) | 54.7 µM (inactive) | 15.6 µM (inactive) | 0.367 µM (active) | 13.8 µM (inactive) | 15.7 µM (inactive) | 15.2 µM (inactive) | 16.6 | 19.6 µM (inactive) | 18.7 µM (inactive) | > 100 µM (inactive) | 15.3 µM (inactive) |
| CCOC(=O)c1c(C)n(Cc2ccccc2)c2c1cc(O)c1[nH]c3c(c12)CCCC3 | 6.52 µM (inactive) | 11.9 µM (inactive) |  | 4.72 µM (inactive) | 3.03 µM (inactive) |  | 2.41 µM (inactive) | 2.36 µM (inactive) | 6.52 µM (inactive) | 11.3 µM (inactive) | 2.37 µM (inactive) | 2.43 µM (inactive) | 1.9 µM (inactive) | 5.35 µM (inactive) | 2.2 | 2.03 µM (inactive) | 2.82 µM (inactive) | 10.3 µM (inactive) | 3.17 µM (inactive) |
| CC1(C)Cc2ccccc2C(C)(Cl)C(=O)N1 (centres undefined) | > 10 µM (inactive) | > 10 µM (inactive) | > 10 µM (inactive) | > 10 µM (inactive) | > 10 µM (inactive) |  | > 10 µM (inactive) | > 10 µM (inactive) | > 10 µM (inactive) | > 10 µM (inactive) | > 10 µM (inactive) | > 10 µM (inactive) | > 10 µM (inactive) | > 10 µM (inactive) | > 10 | > 10 µM (inactive) | > 10 µM (inactive) |  | > 10 µM (inactive) |
| C1CCNCC1.S=C(S)N1CCCCC1 | 25.4 µM (inactive) | 199 µM (inactive) | 190 µM (inactive) | 19.3 µM (inactive) | 149 µM (inactive) | 61.2 µM (inactive) | 0.307 µM (active) | 26.4 µM (inactive) | 0.632 µM (active) | 87.7 µM (inactive) |  | 37.7 µM (inactive) | 0.601 µM (active) | 16.1 µM (inactive) | 88.9 | 91 µM (inactive) |  | 92.5 µM (inactive) | 2.26 µM (inactive) |
| CC(C)CC(=O)OC[n+]1cccc(-c2c(COC(=O)NC(C)C)c(COC(=O)NC(C)C)c3n2CCC3)c1 | 61.4 µM (inactive) | > 100 µM (inactive) | 33.9 µM (inactive) | 35.2 µM (inactive) | > 100 µM (inactive) | 39.8 µM (inactive) |  | 45.1 µM (inactive) | 79.1 µM (inactive) | 24.9 µM (inactive) | 34.1 µM (inactive) | 48.1 µM (inactive) | 25.6 µM (inactive) | 37.4 µM (inactive) | 66.8 | 51.3 µM (inactive) | 30.1 µM (inactive) | 55.3 µM (inactive) | > 100 µM (inactive) |
| COc1cc(/N=N/N(C)C)c(C(C)c2c3cc(OC)c(OC)cc3cc[n+]2C)cc1OC (centres undefined) | 86.3 µM (inactive) | 40.7 µM (inactive) | 17.6 µM (inactive) | > 100 µM (inactive) | 42.3 µM (inactive) | 31.6 µM (inactive) |  | 33.4 µM (inactive) | > 100 µM (inactive) | > 100 µM (inactive) | 37.3 µM (inactive) | 38.5 µM (inactive) | 25.1 µM (inactive) | 26.3 µM (inactive) | > 100 | 23.4 µM (inactive) | 30.8 µM (inactive) | > 100 µM (inactive) | 14.3 µM (inactive) |
| CC(C)(C)OC(=O)N(O)[C@@H]1CC[C@H](n2cnc3c(N)ncnc32)C1 | > 100 µM (inactive) | > 100 µM (inactive) | > 100 µM (inactive) | > 100 µM (inactive) | > 100 µM (inactive) | > 100 µM (inactive) |  | > 100 µM (inactive) | > 100 µM (inactive) | > 100 µM (inactive) | > 100 µM (inactive) | > 100 µM (inactive) | > 100 µM (inactive) | > 100 µM (inactive) | > 100 | > 100 µM (inactive) | > 100 µM (inactive) | > 100 µM (inactive) | > 100 µM (inactive) |
| CCCCN(CCCC)CC(O)c1cc(-c2ccc(Cl)c(Cl)c2)nc2c(Cl)cc(Cl)cc12 (centres undefined) |  | > 100 µM (inactive) |  | > 100 µM (inactive) | > 100 µM (inactive) | > 100 µM (inactive) | 88.3 µM (inactive) | 6.84 µM (inactive) |  | 89.1 µM (inactive) | 65.3 µM (inactive) | 36.4 µM (inactive) | > 100 µM (inactive) | 7.64 µM (inactive) | 45.1 | 37.2 µM (inactive) | > 100 µM (inactive) | > 100 µM (inactive) |  |
| CN(C)CCOC(=O)c1ccc(N)cc1 | 17.6 µM (inactive) | 41.8 µM (inactive) | 97.1 µM (inactive) | 51.2 µM (inactive) | 56.5 µM (inactive) |  | 39 µM (inactive) | 32.6 µM (inactive) | 52.4 µM (inactive) | 54.1 µM (inactive) | 20.7 µM (inactive) | 12.1 µM (inactive) | 36.8 µM (inactive) | 16.1 µM (inactive) | > 100 | 58.5 µM (inactive) | 31.8 µM (inactive) | 56.6 µM (inactive) | 37.2 µM (inactive) |
| CC1(C)NC(=O)C(NC(=O)C(CC(=O)OCc2ccccc2)NC(=O)OCc2ccccc2)CCCCNC(=O)CCNC1=O (centres undefined) (Cbz-D(OBn)K[Aib][βAla]; lactam 2-C; configuration not given here) | > 100 µM (inactive) | > 100 µM (inactive) | > 100 µM (inactive) | > 100 µM (inactive) | > 100 µM (inactive) | > 100 µM (inactive) | > 100 µM (inactive) | > 100 µM (inactive) | > 100 µM (inactive) | > 100 µM (inactive) |  | > 100 µM (inactive) | > 100 µM (inactive) | > 100 µM (inactive) | > 100 | > 100 µM (inactive) | > 100 µM (inactive) | > 100 µM (inactive) | > 100 µM (inactive) |
